Legend:
[1] = test system: narcosis induced by ethanol in mice; experiment: Effect on narcosis induced by ethanol; format: in vivo
Text: d. Effect on narcosis induced by pentobarbital and ethanol in mice.

[2] = test system: aggressiveness subsequent to electric shocks in mice; experiment: Anti-aggressive: aggressiveness subsequent to electric shocks, mice; format: in vivo; conditions: Mus musculus, oral, read-out: Oral AD50, electric shock in mice
Protocol: (§1) a. aggressiveness subsequent to electric shocks in mice and rats,
(§2) In all cases, the AD50 values were determined by the oral route.

[3] = test system: rats; experiment: Oral subacute toxicity in rats; format: in vivo; conditions: 1 month old rats, up to a daily dosage of 100 mg/kg
Text: Oral subacute toxicity in rats was investigated by determination of the death rate (if any), of the change in the weight of some organs, and by hematologic examinations, and the like.
Subacute toxicity in 1 month old rats, with compounds Nos. 11 and 18

[4] = test system: aggressiveness in mice-killing rats; experiment: Anti-aggressive: aggressiveness in mice-killing rats; format: in vivo; conditions: Rattus norvegicus, oral, read-out: Oral AD50, mice-killing rats
Protocol: d. aggressiveness in mice-killing rats.
as §2

[5] = test system: aggressiveness subsequent to extended isolation in mice; experiment: Anti-aggressive: aggressiveness subsequent to extended isolation, mice; format: in vivo; conditions: Mus musculus, oral, read-out: Oral AD50, isolated mice
Protocol: c. aggressiveness subsequent to extended isolation, in mice,
as §2

[6] = test system: aggressiveness subsequent to apomorphine injection in rats; experiment: Anti-aggressive: aggressiveness subsequent to apomorphine injection, rats; format: in vivo; conditions: Rattus norvegicus, oral, apomorphine injection 1 mg/kg, read-out: Oral AD50, apomorphine, in rats
Protocol: b. aggressiveness subsequent to apomorphine injection (1 mg/kg, in vivo) in rats,
as §2

[7] = test system: writhing in mice; experiment: Antalgic: writhing test in mice (intraperitoneal acetic acid); format: in vivo; conditions: Mus musculus, oral route, read-out: AD50 on administration of acetic acid
Protocol: (§3) The following tests were carried out:
(§4) a. writhing test in mice, by the oral route (on intraperitoneal administration of acetic acid),

[8] = test system: aggressiveness subsequent to electric shocks in rats; experiment: Anti-aggressive: aggressiveness subsequent to electric shocks, rats; format: in vivo; conditions: Rattus norvegicus, oral, read-out: Oral AD50, electric shock in rats
Protocol: as §1, §2

[9] = test system: motor activity in mice; experiment: Motor-stimulant or -depressant activity, light-beam activometer; format: in vivo; conditions: sub-cutaneous or oral routes
Protocol: The motor-stimulant or -depressant activities were investigated in mice by the sub-cutaneous or oral routes by means of an activometric technique (light-beam activometer).
The dosages which increase or decrease the number of cases over the 50% limit were determined with respect to concomitantly effected reference tests.

[10] = Acute toxicity in rats; format: in vivo; conditions: rat, in vivo, po, single administration
Text: (§5) Acute toxicity in mice by the sub-cutaneous and oral routes and in rats by the oral route was investigated by determination of the death rate following a single administration of increasing dosages.
(§6) Symbol > means that the LD50 is not attained at the dosage indicated.

[11] = test system: licking reflex in mice; experiment: Antalgic: hot-plate test, licking reflex; format: in vivo; conditions: Mus musculus, plate heated at 65° C., read-out: AD50 in the hot-plate test (licking reflex)
Protocol: as §3
(§7) b. hot-plate test: licking reflex in mice on a plate heated at 65° C.

[12] = test system: psychotropic activity; experiment: Psychotropic activity, overall profile; conditions: in vivo
Text: The psychotropic and anti-inflammatory effects of the derivatives of this invention were investigated according to several methods described hereinafter.

[13] = Acute toxicity in mice; format: in vivo; conditions: mouse, in vivo, single administration
Text: as §5, §6

[14] = test system: group toxicity of amphetamine in mice; experiment: Antagonistic activity on the group toxicity of amphetamine in mice; format: in vivo; conditions: Mus musculus, read-out: AD50, antagonistic activity on the group toxicity of amphetamine
[15] = test system: antalgic activity in mice; experiment: Antalgic activity overall (writhing and hot-plate); format: in vivo
Protocol: as §3, §4, §7

Cn1c(=O)c2c(nc3n2CCCN3CCN2CCN(c3cccc(Cl)c3)CC2)n(C)c1=O [Compound 18, 9-(2-4-(m-chlorophenyl)piperazin-1-yl!-ethyl)1,3-dimethyl-6,7,8,9-tetrahydropyrimidino(2,1-f)-purine-2,4-dione]
ethanol-induced narcosis-potentiating effect [1]: potentiates ethanol-induced narcosis | ED50 [2]: 15 mg/kg | death rate (fatal issue) [3]: No fatal issue was noted | ED50 [4]: 22 mg/kg | ED50 [5]: 9 mg/kg | ED50 [6]: 85 mg/kg | ED50 [7]: 13 mg/kg | ED50 [8]: 45 mg/kg | ED50 ([9]; Mus musculus, read-out: AD50, sedative action): 7.5 mg/kg | sedative action (in words) [9]: more sedative | LD50 [10]: > 100 mg/kg | ED50 [11]: 8.5 mg/kg | psychotropic activity (in words) [12]: has the same characteristics | LD50 ([13]; po, read-out: LD50, oral route, mice): > 300 mg/kg | LD50 ([13]; sc, read-out: LD50, s.c. route, mice): > 300 mg/kg | ED50 [14]: 20 mg/kg | antalgic activity (in words) [15]: more antalgic

Reference: patent US4073908A, “8-Amino-theophylline derivatives and therapeutic applications thereof” (Laboratoire le Brun S.A., priority 1975, dated 1978)
